Laboratory results published in article PMC6718736, “Validation of in vitro methods for human cytochrome P450 enzyme induction: Outcome of a multi-laboratory study” (Toxicology in Vitro, 2019).
Like-named read-outs stand apart in the source and are kept apart here.

Tests used:
[1] = cited from earlier work
CYP1A2 [2] = assay: CYP1A2 enzyme induction assay in cryopreserved HepaRG cells (phenacetin probe, LC/MS); type: in vitro ADME, human; conditions: for Assigned classification CYP1A2: HepaRG
CYP2B6 [3] = assay: CYP2B6 enzyme induction assay in cryopreserved HepaRG cells (bupropion probe, LC/MS); type: in vitro ADME, human; conditions: HepaRG
CYP3A4 [4] = assay: CYP3A4 enzyme induction assay in cryopreserved HepaRG cells (midazolam probe, LC/MS); type: in vitro ADME, human; conditions: for Assigned classification CYP3A4: HepaRG
CYP1A2 [5] = assay: CYP1A2 enzyme induction assay in cryopreserved primary human hepatocytes (PHH); type: in vitro ADME; conditions: for Assigned classification CYP1A2: PHH
CYP2B6 [6] = assay: CYP2B6 enzyme induction assay in cryopreserved primary human hepatocytes (PHH); type: in vitro ADME; conditions: PHH
CYP1A2 [7] = conditions: CYP1A2, human; ref Table 1; cited from earlier work
CYP3A4 [8] = conditions: CYP3A4, human in vivo reference classification (Table 11); cited from earlier work
CYP3A4 [9] = assay: CYP3A4 enzyme induction assay in cryopreserved primary human hepatocytes (PHH); conditions: for Assigned classification CYP3A4: PHH
[10] = human in vivo plasma concentration, normal dose
[11] = human in vivo, normal dose (Table 10)

C[C@@H]1CC[C@H]2[C@@H](C)C(=O)O[C@@H]3O[C@@]4(C)CC[C@@H]1[C@]32OO4 [Artemisinin]
1000 to 2000 nM: Cmax [1, 10] | Cmax [1, 11]

COCCc1ccc(OCC(O)CNC(C)C)cc1 (stereo not drawn) [Metoprolol]
140 to 380 nM: Cmax [1, 10] | Cmax [1, 11]
No: Prediction in vivo inducer (CYP1A2 [2]; CYP1A2, HepaRG cells, Cmax/F2 >0.5 criterion) | Induction in vitro (CYP1A2 [2]; CYP1A2, HepaRG cells, positive in one batch in each of the three laboratories) | Induction in vitro (CYP3A4 [4]; CYP3A4, HepaRG cells) | Prediction in vivo inducer (CYP3A4 [4]; CYP3A4, HepaRG cells) | Prediction in vivo inducer (CYP1A2 [5]; CYP1A2, PHH, Cmax/F2 >0.5 criterion) | Induction in vitro (CYP1A2 [5]; CYP1A2, PHH, positive in one donor in each of the three laboratories) | Induction in vivo (CYP1A2 [7]) | Induction in vivo (CYP3A4 [8]) | Induction in vitro (CYP3A4 [9]; CYP3A4, PHH) | Prediction in vivo inducer (CYP3A4 [9]; CYP3A4, PHH)
predicted to be a non-inducer in vivo: Prediction in vivo inducer (CYP3A4 [9]; CYP3A4, PHH, Cmax/F2 >0.5 criterion)
1: Assigned classification CYP1A2 (CYP1A2 [2]; Lab 2, batch 35) | Assigned classification CYP1A2 (CYP1A2 [5]; Lab 1, batch 4 0 8) | Assigned classification CYP1A2 (CYP1A2 [5]; Lab 1, batch 8 0 8) | Assigned classification CYP1A2 (CYP1A2 [5]; Lab 3, batch 0 6 A) | Assigned classification CYP2B6 (CYP2B6 [6]; Lab 3, batch 0 6 A) | Assigned classification CYP3A4 (CYP3A4 [9]; Lab 2, batch 0 6 A) | Assigned classification CYP3A4 (CYP3A4 [9]; Lab 3, batch 0 6 A)
0: Assigned classification CYP1A2 (CYP1A2 [2]; Lab 1, batch 20) | Assigned classification CYP1A2 (CYP1A2 [2]; Lab 1, batch 35) | Assigned classification CYP1A2 (CYP1A2 [2]; Lab 1, batch 36) | Assigned classification CYP1A2 (CYP1A2 [2]; Lab 2, batch 20) | Assigned classification CYP1A2 (CYP1A2 [2]; Lab 2, batch 36) | Assigned classification CYP1A2 (CYP1A2 [2]; Lab 3, batch 20) | Assigned classification CYP1A2 (CYP1A2 [2]; Lab 3, batch 35) | Assigned classification CYP1A2 (CYP1A2 [2]; Lab 3, batch 36) | Assigned classification CYP2B6 (CYP2B6 [3]; Lab 1, batch 20) | Assigned classification CYP2B6 (CYP2B6 [3]; Lab 1, batch 35) | Assigned classification CYP2B6 (CYP2B6 [3]; Lab 1, batch 36) | Assigned classification CYP2B6 (CYP2B6 [3]; Lab 2, batch 20) | Assigned classification CYP2B6 (CYP2B6 [3]; Lab 2, batch 35) | Assigned classification CYP2B6 (CYP2B6 [3]; Lab 2, batch 36) | Assigned classification CYP2B6 (CYP2B6 [3]; Lab 3, batch 20) | Assigned classification CYP2B6 (CYP2B6 [3]; Lab 3, batch 35) | Assigned classification CYP2B6 (CYP2B6 [3]; Lab 3, batch 36) | Assigned classification CYP3A4 (CYP3A4 [4]; Lab 1, batch 20) | Assigned classification CYP3A4 (CYP3A4 [4]; Lab 1, batch 35) | Assigned classification CYP3A4 (CYP3A4 [4]; Lab 1, batch 36) | Assigned classification CYP3A4 (CYP3A4 [4]; Lab 2, batch 20) | Assigned classification CYP3A4 (CYP3A4 [4]; Lab 2, batch 35) | Assigned classification CYP3A4 (CYP3A4 [4]; Lab 2, batch 36) | Assigned classification CYP3A4 (CYP3A4 [4]; Lab 3, batch 20) | Assigned classification CYP3A4 (CYP3A4 [4]; Lab 3, batch 35) | Assigned classification CYP3A4 (CYP3A4 [4]; Lab 3, batch 36) | Assigned classification CYP1A2 (CYP1A2 [5]; Lab 1, batch 0 6 A) | Assigned classification CYP1A2 (CYP1A2 [5]; Lab 2, batch 0 6 A) | Assigned classification CYP1A2 (CYP1A2 [5]; Lab 2, batch 4 0 8) | Assigned classification CYP1A2 (CYP1A2 [5]; Lab 2, batch 8 0 8) | Assigned classification CYP1A2 (CYP1A2 [5]; Lab 3, batch 4 0 8) | Assigned classification CYP1A2 (CYP1A2 [5]; Lab 3, batch 8 0 8) | Assigned classification CYP2B6 (CYP2B6 [6]; Lab 1, batch 0 6 A) | Assigned classification CYP2B6 (CYP2B6 [6]; Lab 1, batch 4 0 8) | Assigned classification CYP2B6 (CYP2B6 [6]; Lab 1, batch 8 0 8) | Assigned classification CYP2B6 (CYP2B6 [6]; Lab 2, batch 0 6 A) | Assigned classification CYP2B6 (CYP2B6 [6]; Lab 2, batch 4 0 8) | Assigned classification CYP2B6 (CYP2B6 [6]; Lab 2, batch 8 0 8) | Assigned classification CYP2B6 (CYP2B6 [6]; Lab 3, batch 4 0 8) | Assigned classification CYP2B6 (CYP2B6 [6]; Lab 3, batch 8 0 8) | Assigned classification CYP3A4 (CYP3A4 [9]; Lab 1, batch 0 6 A) | Assigned classification CYP3A4 (CYP3A4 [9]; Lab 1, batch 4 0 8) | Assigned classification CYP3A4 (CYP3A4 [9]; Lab 1, batch 8 0 8) | Assigned classification CYP3A4 (CYP3A4 [9]; Lab 2, batch 4 0 8) | Assigned classification CYP3A4 (CYP3A4 [9]; Lab 2, batch 8 0 8) | Assigned classification CYP3A4 (CYP3A4 [9]; Lab 3, batch 4 0 8) | Assigned classification CYP3A4 (CYP3A4 [9]; Lab 3, batch 8 0 8)
